System: infants with central diabetes insipidus
Test: Pharmacodynamics
Format: in vivo
Conditions: Case 2, IV administration of dDAVP; confirmed diagnosis of CDI

desmopressin [dDAVP]
urine output and osmolality after IV administration: Normalization of urine output and osmolality
